Test results: patent publication US20080293681A1, “SPRAYABLE PHARMACEUTICAL COMPOSITIONS COMPRISING A VITAMIN D DERIVATIVE AND AN OILY PHASE” (GALDERMA S.A., priority 2005, published 2008)

What was measured:
[1] = Stability of calcitriol in Cetiol SN (cetearyl isononanoate), HPLC assay against reference substance; assay type: physicochemical; details: 30 ppm in Cetiol SN with 0.4% BHT
From the text: (§1) The following example describes the stability data for calcitriol in the various excipients preferred for the composition according to the invention, including caprylic/capric triglycerides and cetearyl isononanoate. Stability of calcitriol in Cetiol SN (cetearyl isononanoate) Solution of calcitriol at 30 ppm in qs 100% of Cetiol SN (cetearyl isononanoate) in the presence of 0.4% of BHT. Assaying technique by HPLC against reference substance. At the initial time (T0), it is considered that the composition contains 100% of calcitriol. Measured concentration of calcitriol as % relative to T0: […]

[2] = Stability of calcitriol in Miglyol 812 (caprylic/capric triglycerides), HPLC assay against reference substance; assay type: physicochemical; details: 30 ppm in Miglyol 812 with 0.4% BHT
From the text: as §1, with “in Miglyol 812 (caprylic/capric triglycerides)” for “in Cetiol SN (cetearyl isononanoate)”, “of Miglyol 812” for “of Cetiol SN (cetearyl isononanoate)”

Measured concentration of calcitriol as % relative to T0 ([1]; +4° C., T 2 weeks): 98.6%
Measured concentration of calcitriol as % relative to T0 ([1]; +4° C., T 4 weeks): 98.1%
Measured concentration of calcitriol as % relative to T0 ([1]; +40° C., T 2 weeks): 99.0%
Measured concentration of calcitriol as % relative to T0 ([1]; +40° C., T 4 weeks): 98.9%
Measured concentration of calcitriol as % relative to T0 ([1]; AT, T 2 weeks): 98.7%
Measured concentration of calcitriol as % relative to T0 ([1]; AT, T 4 weeks): 98.4%
Measured concentration of calcitriol as % relative to T0 ([2]; +4° C., T 2 weeks): 98.3%
Measured concentration of calcitriol as % relative to T0 ([2]; +4° C., T 4 weeks): 105.2%
Measured concentration of calcitriol as % relative to T0 ([2]; +40° C., T 2 weeks): 91%
Measured concentration of calcitriol as % relative to T0 ([2]; +40° C., T 4 weeks): 93.8%
Measured concentration of calcitriol as % relative to T0 ([2]; AT, T 2 weeks): 95.1%
Measured concentration of calcitriol as % relative to T0 ([2]; AT, T 4 weeks): 98.0%
SMILES: C=C1/C(=C\C=C2/CCC[C@]3(C)[C@@H]([C@H](C)CCCC(C)(C)O)CC[C@@H]23)C[C@@H](O)C[C@@H]1O [calcitriol]
